Source: paper PMC6272684, “Synthesis, Antiproliferative and Antifungal Activities of 1,2,3-Triazole-Substituted Carnosic Acid and Carnosol Derivatives” (Molecules, 2015)
In brackets after ≈: the same amount, converted by molar mass.

Key:
C. neoformans ATCC 32264 = test: Antifungal broth microdilution (CLSI M27-A3), growth inhibition; assay type: cell-based, Cryptococcus neoformans
Method: (§1) The antifungal properties of compounds 1–24 against two clinical important fungal species, C. albicans ATCC 10231 and C. neoformans ATCC 32264 were investigated. Results were expressed as the percentages of inhibition of each fungus in the range 250–3.9 μg∙mL^−1 by using the standardized microbroth dilution method M-27A3 of Clinical and Laboratory Standards Institute which assures reliable and reproducible results.
(§2) For the antifungal evaluation, standardized strains from the American Type Culture Collection (ATCC), Rockville, MD, USA, were used. The microorganisms included yeasts (Candida albicans ATCC 10231 and Cryptococcus neoformans ATCC 32264). Strains were grown on Sabouraud-chloramphenicol agar slants for 48 h at 30 °C, maintained on slopes of Sabouraud-dextrose agar (SDA, Oxoid), and subcultured every 15 days to prevent pleomorphic transformations. Inocula of cell or spore suspensions were obtained according to reported procedures and adjusted to 1–5 × 10^3 cells/spores with colony forming units (CFU)/mL [29].
(§3) Broth microdilution techniques were performed in 96-well microplates according to the Clinical and Laboratory Standards Institute Reference Method for Broth Dilution Antifungal Susceptibility Testing of Yeasts, Approved Standard M27-A3 [29]. For the assay, compound test wells (CTWs) were prepared with stock solutions of each compound in DMSO (maximum concentration ≤1%), diluted with RPMI-1640, to final concentrations of 250–3.9 μg∙mL^−1. An inoculum suspension (100 μL) was added to each well (final volume in the well = 200 μL). A growth control well (GCW) (containing medium, inoculum, and the same amount of DMSO used in a CTW, but compound-free) and a sterility control well (SCW) (sample, medium, and sterile water instead of inoculum) were included for each fungus tested. Microtiter trays were incubated in a moist, dark chamber at 30 °C for 48 h for both yeasts. Microplates were read in a VERSA Max microplate reader (Molecular Devices, Sunnyvale, CA, USA). Amphotericin B (Sigma-Aldrich) was used as positive control. Tests were performed in triplicate. Reduction of growth for each compound concentration was calculated as follows: % of inhibition = 100 − (OD 405 CTW − OD 405 SCW)/(OD 405 GCW − OD 405 SCW). The means ± SEM were the results of triplicate tests. Three endpoints were defined from the assay explained above and the dose-response curves. Minimum Inhibitory concentration (MIC) resulting in total fungal growth inhibition was named MIC100 while MIC50 was defined as the minimum concentration that inhibits 50% of the fungal growth.

C. albicans ATCC 10231 = test: as above; assay type: cell-based, Candida albicans
Method: as §1, §2, §3

C[C@@H]1[C@H](O)[C@@H](C)/C=C/C=C/C=C/C=C/C=C/C=C/C=C/[C@H](O[C@@H]2O[C@H](C)[C@@H](O)[C@H](N)[C@@H]2O)C[C@@H]2O[C@](O)(C[C@@H](O)C[C@@H](O)[C@H](O)CC[C@@H](O)C[C@@H](O)CC(=O)O[C@H]1C)C[C@H](O)[C@H]2C(=O)O [Amph B, amphotericin B, reference compound]
inhibition at 3.9 µg/mL (C. neoformans ATCC 32264; Cryptococcus neoformans, ATCC32264, 3.9 μg∙mL^−1, 48 h, read-out: Inhibition percentage against C. neoformans ATCC 32264): 100% | inhibition at 7.8 µg/mL (C. neoformans ATCC 32264; Cryptococcus neoformans, ATCC32264, 7.8 μg∙mL^−1, 48 h, read-out: Inhibition percentage against C. neoformans ATCC 32264): 100% | inhibition at 15.6 µg/mL (C. neoformans ATCC 32264; Cryptococcus neoformans, ATCC32264, 15.6 μg∙mL^−1, 48 h, read-out: Inhibition percentage against C. neoformans ATCC 32264): 100% | inhibition at 31.2 µg/mL (C. neoformans ATCC 32264; Cryptococcus neoformans, ATCC32264, 31.2 μg∙mL^−1, 48 h, read-out: Inhibition percentage against C. neoformans ATCC 32264): 100% | inhibition at 62.5 µg/mL (C. neoformans ATCC 32264; Cryptococcus neoformans, ATCC32264, 62.5 μg∙mL^−1, 48 h, read-out: Inhibition percentage against C. neoformans ATCC 32264): 100% | inhibition at 125 µg/mL (C. neoformans ATCC 32264; Cryptococcus neoformans, ATCC32264, 125 μg∙mL^−1, 48 h, read-out: Inhibition percentage against C. neoformans ATCC 32264): 100% | inhibition at 250 µg/mL (C. neoformans ATCC 32264; Cryptococcus neoformans, ATCC32264, 250 μg∙mL^−1, 48 h, read-out: Inhibition percentage against C. neoformans ATCC 32264): 100% | MIC50 (C. neoformans ATCC 32264; Cryptococcus neoformans, ATCC32264, C. neoformans ATCC 32264, read-out: MIC50 (minimum concentration to inhibit 50% of fungal growth), C. neoformans): 0.5 µg/mL (≈ 0.541 µM) | inhibition at 3.9 µg/mL (C. albicans ATCC 10231; Candida albicans, ATCC10231, 3.9 μg∙mL^−1, 48 h, read-out: Inhibition percentage against C. albicans ATCC 10231): 100% | inhibition at 7.8 µg/mL (C. albicans ATCC 10231; Candida albicans, ATCC10231, 7.8 μg∙mL^−1, 48 h, read-out: Inhibition percentage against C. albicans ATCC 10231): 100% | inhibition at 15.6 µg/mL (C. albicans ATCC 10231; Candida albicans, ATCC10231, 15.6 μg∙mL^−1, 48 h, read-out: Inhibition percentage against C. albicans ATCC 10231): 100% | inhibition at 62.5 µg/mL (C. albicans ATCC 10231; Candida albicans, ATCC10231, 62.5 μg∙mL^−1, 48 h, read-out: Inhibition percentage against C. albicans ATCC 10231): 100% | inhibition at 125 µg/mL (C. albicans ATCC 10231; Candida albicans, ATCC10231, 125 μg∙mL^−1, 48 h, read-out: Inhibition percentage against C. albicans ATCC 10231): 100% | inhibition at 250 µg/mL (C. albicans ATCC 10231; Candida albicans, ATCC10231, 250 μg∙mL^−1, 48 h, read-out: Inhibition percentage against C. albicans ATCC 10231): 100% | MIC50 (C. albicans ATCC 10231; Candida albicans, ATCC10231, C. albicans ATCC 10231, read-out: MIC50 (minimum concentration to inhibit 50% of fungal growth), C. albicans): 0.25 µg/mL (≈ 0.271 µM)

CC(C)c1cc2c(c(OC(=O)CCc3cn(Cc4ccccc4)nn3)c1OC(=O)CCc1cn(Cc3ccccc3)nn1)C13CCCC(C)(C)C1CC2OC3=O (stereo not drawn) [Compound 19, (7β)-11,12-O-(3-(1-benzyl-1H-1,2,3-triazol-4-yl)-propanoyloxy)-7,20-epoxyabieta-8,11,13-trien-20-one]
Inhibition percentage against C. neoformans ATCC 32264 (C. neoformans ATCC 32264; 3.9 μg∙mL^−1, 48 h): 0.0% | Inhibition percentage against C. neoformans ATCC 32264 (C. neoformans ATCC 32264; 7.8 μg∙mL^−1, 48 h): 0.0% | Inhibition percentage against C. neoformans ATCC 32264 (C. neoformans ATCC 32264; 15.6 μg∙mL^−1, 48 h): 0.0% | Inhibition percentage against C. neoformans ATCC 32264 (C. neoformans ATCC 32264; 31.2 μg∙mL^−1, 48 h): 0.0% | Inhibition percentage against C. neoformans ATCC 32264 (C. neoformans ATCC 32264; 62.5 μg∙mL^−1, 48 h): 3.3 ± 1.1% | Inhibition percentage against C. neoformans ATCC 32264 (C. neoformans ATCC 32264; 125 μg∙mL^−1, 48 h): 7.1 ± 2.0% | Inhibition percentage against C. neoformans ATCC 32264 (C. neoformans ATCC 32264; 250 μg∙mL^−1, 48 h): 31.3 ± 1.6% | MIC50 (minimum concentration to inhibit 50% of fungal growth), C. neoformans (C. neoformans ATCC 32264; C. neoformans ATCC 32264): >250 µg/mL | Inhibition percentage against C. albicans ATCC 10231 (C. albicans ATCC 10231; 3.9 μg∙mL^−1, 48 h): 0.7 ± 0.3% | Inhibition percentage against C. albicans ATCC 10231 (C. albicans ATCC 10231; 7.8 μg∙mL^−1, 48 h): 3.2 ± 0.1% | Inhibition percentage against C. albicans ATCC 10231 (C. albicans ATCC 10231; 15.6 μg∙mL^−1, 48 h): 3.2 ± 0.1% | Inhibition percentage against C. albicans ATCC 10231 (C. albicans ATCC 10231; 62.5 μg∙mL^−1, 48 h): 11.9 ± 1.0% | Inhibition percentage against C. albicans ATCC 10231 (C. albicans ATCC 10231; 125 μg∙mL^−1, 48 h): 21.1 ± 1.0% | Inhibition percentage against C. albicans ATCC 10231 (C. albicans ATCC 10231; 250 μg∙mL^−1, 48 h): 37.8 ± 0.5% | Inhibition percentage against C. albicans ATCC 10231 (C. albicans ATCC 10231; 31. μg∙mL^−1, 48 h): 4.6 ± 1.8% | MIC50 (minimum concentration to inhibit 50% of fungal growth), C. albicans (C. albicans ATCC 10231; C. albicans ATCC 10231): >250 µg/mL

COC(=O)C12CCCC(C)(C)C1CCc1cc(C(C)C)c(OC(=O)CCc3cn(Cc4ccc(Br)cc4)nn3)c(OC(=O)CCc3cn(Cc4ccc(Br)cc4)nn3)c12 (centres unmarked) [Compound 13, Methyl(11,12-O-(3-(1-(4-bromobenzyl)-1H-1,2,3-triazol-4-yl)-propanoyloxy)-abieta-8,11,13-triene)-20-oate]
Inhibition percentage against C. neoformans ATCC 32264 (C. neoformans ATCC 32264; 3.9 μg∙mL^−1, 48 h): 5.8 ± 0.6% | Inhibition percentage against C. neoformans ATCC 32264 (C. neoformans ATCC 32264; 7.8 μg∙mL^−1, 48 h): 10.0 ± 1.0% | Inhibition percentage against C. neoformans ATCC 32264 (C. neoformans ATCC 32264; 15.6 μg∙mL^−1, 48 h): 13.3 ± 0.3% | Inhibition percentage against C. neoformans ATCC 32264 (C. neoformans ATCC 32264; 31.2 μg∙mL^−1, 48 h): 13.7 ± 0.6% | Inhibition percentage against C. neoformans ATCC 32264 (C. neoformans ATCC 32264; 62.5 μg∙mL^−1, 48 h): 16.3 ± 1.1% | Inhibition percentage against C. neoformans ATCC 32264 (C. neoformans ATCC 32264; 125 μg∙mL^−1, 48 h): 16.8 ± 1.8% | Inhibition percentage against C. neoformans ATCC 32264 (C. neoformans ATCC 32264; 250 μg∙mL^−1, 48 h): 25.7 ± 0.5% | MIC50 (minimum concentration to inhibit 50% of fungal growth), C. neoformans (C. neoformans ATCC 32264; C. neoformans ATCC 32264): >250 µg/mL | Inhibition percentage against C. albicans ATCC 10231 (C. albicans ATCC 10231; 3.9 μg∙mL^−1, 48 h): 0.0% | Inhibition percentage against C. albicans ATCC 10231 (C. albicans ATCC 10231; 7.8 μg∙mL^−1, 48 h): 0.6 ± 0.1% | Inhibition percentage against C. albicans ATCC 10231 (C. albicans ATCC 10231; 15.6 μg∙mL^−1, 48 h): 1.3 ± 0.3% | Inhibition percentage against C. albicans ATCC 10231 (C. albicans ATCC 10231; 62.5 μg∙mL^−1, 48 h): 6.7 ± 0.1% | Inhibition percentage against C. albicans ATCC 10231 (C. albicans ATCC 10231; 125 μg∙mL^−1, 48 h): 10.7 ± 0.3% | Inhibition percentage against C. albicans ATCC 10231 (C. albicans ATCC 10231; 250 μg∙mL^−1, 48 h): 17.6 ± 0.2% | Inhibition percentage against C. albicans ATCC 10231 (C. albicans ATCC 10231; 31. μg∙mL^−1, 48 h): 4.3 ± 0.4% | MIC50 (minimum concentration to inhibit 50% of fungal growth), C. albicans (C. albicans ATCC 10231; C. albicans ATCC 10231): >250 µg/mL
